How the values were obtained:
Assay in all cases: Kinase panel (mobility shift)
Format in all cases: biochemical
EPH-A8 = target: T1, EPH-A8 (Homo sapiens, UniProt P29322)
T1 sequence (P29322 28-1005): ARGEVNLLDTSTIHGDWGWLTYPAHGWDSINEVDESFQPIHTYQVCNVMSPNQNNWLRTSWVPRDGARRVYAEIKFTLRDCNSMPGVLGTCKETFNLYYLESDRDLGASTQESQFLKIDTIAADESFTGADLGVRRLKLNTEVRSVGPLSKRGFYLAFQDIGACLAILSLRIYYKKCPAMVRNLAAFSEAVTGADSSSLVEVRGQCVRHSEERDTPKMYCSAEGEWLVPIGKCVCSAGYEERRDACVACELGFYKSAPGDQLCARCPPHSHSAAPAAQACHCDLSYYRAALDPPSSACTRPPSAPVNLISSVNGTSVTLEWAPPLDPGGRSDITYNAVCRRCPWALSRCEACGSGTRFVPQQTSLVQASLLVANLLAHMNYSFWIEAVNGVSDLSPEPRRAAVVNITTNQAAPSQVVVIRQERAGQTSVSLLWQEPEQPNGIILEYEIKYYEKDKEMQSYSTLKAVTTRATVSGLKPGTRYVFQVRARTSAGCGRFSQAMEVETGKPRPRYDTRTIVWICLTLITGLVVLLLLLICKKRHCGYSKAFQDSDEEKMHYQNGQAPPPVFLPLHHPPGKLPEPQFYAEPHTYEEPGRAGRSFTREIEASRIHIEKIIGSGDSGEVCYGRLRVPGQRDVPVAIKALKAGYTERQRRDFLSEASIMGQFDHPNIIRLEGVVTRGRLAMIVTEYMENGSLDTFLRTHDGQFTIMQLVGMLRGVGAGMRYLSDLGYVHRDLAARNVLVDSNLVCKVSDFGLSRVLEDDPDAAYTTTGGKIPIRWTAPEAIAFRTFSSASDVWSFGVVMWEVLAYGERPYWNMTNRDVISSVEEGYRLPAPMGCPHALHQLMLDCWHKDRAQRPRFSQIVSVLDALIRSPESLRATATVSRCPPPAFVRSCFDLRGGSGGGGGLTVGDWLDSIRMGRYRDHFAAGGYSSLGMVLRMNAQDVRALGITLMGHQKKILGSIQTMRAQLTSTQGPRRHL
Summary of the method: (§1)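 Tested at a single 5 um concentration within a 299-kinase panel, compounds were scored by electrophoretic mobility shift of a fluorescent substrate into product. Categories: A, 95% or greater; B, 90%-94%; C, 80%-89%.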

TRKA = TRKA (Homo sapiens, UniProt P04629)
Summary of the method: as §1

EPH-A5 = EPH-A5 (Homo sapiens, UniProt P54756); conditions: at 5 um
Summary of the method: as §1

TIE2 = TIE2 (Homo sapiens, UniProt Q02763)
Summary of the method: as §1

TYRO3 = target: T2, TYRO3 (Homo sapiens, UniProt Q06418)
T2 sequence (Q06418 41-890): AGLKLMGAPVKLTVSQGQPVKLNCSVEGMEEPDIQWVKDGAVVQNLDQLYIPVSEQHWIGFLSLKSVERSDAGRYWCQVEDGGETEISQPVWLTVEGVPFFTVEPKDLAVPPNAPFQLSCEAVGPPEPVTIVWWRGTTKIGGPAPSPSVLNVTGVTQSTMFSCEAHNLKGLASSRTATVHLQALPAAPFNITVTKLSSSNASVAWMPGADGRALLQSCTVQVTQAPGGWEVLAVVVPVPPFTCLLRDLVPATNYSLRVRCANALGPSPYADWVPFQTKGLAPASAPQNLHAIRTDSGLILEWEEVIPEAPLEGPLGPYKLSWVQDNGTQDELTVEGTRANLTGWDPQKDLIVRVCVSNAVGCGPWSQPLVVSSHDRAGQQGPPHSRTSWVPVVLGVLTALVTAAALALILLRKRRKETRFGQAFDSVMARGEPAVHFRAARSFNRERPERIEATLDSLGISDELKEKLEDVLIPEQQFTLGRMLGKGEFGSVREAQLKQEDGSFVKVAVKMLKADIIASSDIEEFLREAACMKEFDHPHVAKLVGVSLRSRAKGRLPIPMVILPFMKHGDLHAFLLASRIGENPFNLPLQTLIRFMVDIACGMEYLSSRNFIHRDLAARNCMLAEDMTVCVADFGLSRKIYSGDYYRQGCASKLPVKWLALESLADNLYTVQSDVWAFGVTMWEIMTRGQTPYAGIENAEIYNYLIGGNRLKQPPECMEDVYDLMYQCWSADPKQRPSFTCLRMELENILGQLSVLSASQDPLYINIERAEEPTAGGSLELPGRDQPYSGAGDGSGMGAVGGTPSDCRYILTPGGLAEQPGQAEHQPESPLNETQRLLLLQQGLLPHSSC
Summary of the method: as §1

SRC = SRC (Homo sapiens, UniProt P12931)
Summary of the method: as §1

EPH-A4 = EPH-A4 (Homo sapiens, UniProt P54764)
Summary of the method: as §1

Chain of SRC (P12931 whole entry, species assumed): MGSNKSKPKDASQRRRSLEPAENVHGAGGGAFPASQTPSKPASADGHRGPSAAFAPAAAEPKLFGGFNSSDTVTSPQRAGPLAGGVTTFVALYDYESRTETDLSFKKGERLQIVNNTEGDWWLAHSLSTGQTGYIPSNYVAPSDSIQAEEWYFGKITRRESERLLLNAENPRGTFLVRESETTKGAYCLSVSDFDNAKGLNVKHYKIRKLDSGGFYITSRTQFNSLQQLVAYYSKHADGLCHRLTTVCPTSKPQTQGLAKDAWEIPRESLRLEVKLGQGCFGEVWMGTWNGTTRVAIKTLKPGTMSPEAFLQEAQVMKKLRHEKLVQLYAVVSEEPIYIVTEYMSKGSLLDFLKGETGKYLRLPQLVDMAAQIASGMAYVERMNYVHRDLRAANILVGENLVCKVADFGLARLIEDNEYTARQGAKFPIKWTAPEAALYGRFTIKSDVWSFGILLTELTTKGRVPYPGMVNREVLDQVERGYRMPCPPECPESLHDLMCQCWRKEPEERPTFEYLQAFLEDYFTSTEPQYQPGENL
Chain of EPH-A4 (P54764 20-986, species assumed): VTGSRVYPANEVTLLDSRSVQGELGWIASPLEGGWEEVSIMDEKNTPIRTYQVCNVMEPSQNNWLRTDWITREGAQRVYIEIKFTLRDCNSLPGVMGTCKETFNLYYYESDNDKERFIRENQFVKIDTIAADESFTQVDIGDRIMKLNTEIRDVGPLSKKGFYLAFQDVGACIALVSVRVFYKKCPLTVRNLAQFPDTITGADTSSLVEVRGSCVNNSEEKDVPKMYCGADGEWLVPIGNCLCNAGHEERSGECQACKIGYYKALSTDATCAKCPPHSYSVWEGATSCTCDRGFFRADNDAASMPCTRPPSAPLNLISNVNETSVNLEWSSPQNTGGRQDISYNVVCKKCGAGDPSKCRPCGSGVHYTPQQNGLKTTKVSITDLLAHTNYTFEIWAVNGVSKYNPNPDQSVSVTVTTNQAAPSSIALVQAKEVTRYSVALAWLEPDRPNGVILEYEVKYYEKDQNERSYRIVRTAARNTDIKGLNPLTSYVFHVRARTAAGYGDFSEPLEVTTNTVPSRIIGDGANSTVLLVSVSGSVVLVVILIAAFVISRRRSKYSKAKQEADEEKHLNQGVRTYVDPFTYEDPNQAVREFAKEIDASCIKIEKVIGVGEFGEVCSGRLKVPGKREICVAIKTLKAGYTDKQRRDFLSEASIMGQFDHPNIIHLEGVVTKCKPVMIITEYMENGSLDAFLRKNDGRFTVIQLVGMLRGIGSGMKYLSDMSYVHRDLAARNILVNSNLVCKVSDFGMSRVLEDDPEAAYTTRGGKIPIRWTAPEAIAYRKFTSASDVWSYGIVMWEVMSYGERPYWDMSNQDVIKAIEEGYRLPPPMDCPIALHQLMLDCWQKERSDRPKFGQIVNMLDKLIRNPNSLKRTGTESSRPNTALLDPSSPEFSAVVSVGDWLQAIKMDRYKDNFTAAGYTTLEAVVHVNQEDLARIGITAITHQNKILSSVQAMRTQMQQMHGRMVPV
Chain of EPH-A5 (P54756 25-1037, species assumed): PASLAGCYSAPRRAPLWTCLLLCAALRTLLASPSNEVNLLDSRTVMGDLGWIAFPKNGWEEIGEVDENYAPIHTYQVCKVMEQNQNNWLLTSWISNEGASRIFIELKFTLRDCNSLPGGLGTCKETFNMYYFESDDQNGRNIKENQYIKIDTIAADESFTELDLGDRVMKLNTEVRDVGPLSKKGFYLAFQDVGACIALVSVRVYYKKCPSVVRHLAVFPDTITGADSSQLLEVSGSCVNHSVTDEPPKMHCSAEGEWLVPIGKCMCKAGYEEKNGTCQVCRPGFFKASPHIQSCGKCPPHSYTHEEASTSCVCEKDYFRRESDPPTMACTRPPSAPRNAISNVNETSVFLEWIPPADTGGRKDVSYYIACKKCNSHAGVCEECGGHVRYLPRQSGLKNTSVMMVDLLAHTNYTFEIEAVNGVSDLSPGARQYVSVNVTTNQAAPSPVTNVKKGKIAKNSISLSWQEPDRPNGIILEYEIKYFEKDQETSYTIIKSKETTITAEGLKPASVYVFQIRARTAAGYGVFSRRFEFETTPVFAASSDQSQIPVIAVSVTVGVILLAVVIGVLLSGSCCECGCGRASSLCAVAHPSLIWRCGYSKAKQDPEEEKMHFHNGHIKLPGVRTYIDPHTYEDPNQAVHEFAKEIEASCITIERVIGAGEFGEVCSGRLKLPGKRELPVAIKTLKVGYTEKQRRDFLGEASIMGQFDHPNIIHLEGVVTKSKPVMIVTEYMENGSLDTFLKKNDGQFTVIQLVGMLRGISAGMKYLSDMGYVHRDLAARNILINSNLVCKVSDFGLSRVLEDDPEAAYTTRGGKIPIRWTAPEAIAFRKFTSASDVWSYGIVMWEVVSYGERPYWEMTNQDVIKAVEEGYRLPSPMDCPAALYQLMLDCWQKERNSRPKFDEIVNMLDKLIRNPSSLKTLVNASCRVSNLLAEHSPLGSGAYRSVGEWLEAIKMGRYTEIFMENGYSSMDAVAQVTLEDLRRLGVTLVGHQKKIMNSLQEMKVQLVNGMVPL
Chain of TRKA (P04629 33-796, species assumed): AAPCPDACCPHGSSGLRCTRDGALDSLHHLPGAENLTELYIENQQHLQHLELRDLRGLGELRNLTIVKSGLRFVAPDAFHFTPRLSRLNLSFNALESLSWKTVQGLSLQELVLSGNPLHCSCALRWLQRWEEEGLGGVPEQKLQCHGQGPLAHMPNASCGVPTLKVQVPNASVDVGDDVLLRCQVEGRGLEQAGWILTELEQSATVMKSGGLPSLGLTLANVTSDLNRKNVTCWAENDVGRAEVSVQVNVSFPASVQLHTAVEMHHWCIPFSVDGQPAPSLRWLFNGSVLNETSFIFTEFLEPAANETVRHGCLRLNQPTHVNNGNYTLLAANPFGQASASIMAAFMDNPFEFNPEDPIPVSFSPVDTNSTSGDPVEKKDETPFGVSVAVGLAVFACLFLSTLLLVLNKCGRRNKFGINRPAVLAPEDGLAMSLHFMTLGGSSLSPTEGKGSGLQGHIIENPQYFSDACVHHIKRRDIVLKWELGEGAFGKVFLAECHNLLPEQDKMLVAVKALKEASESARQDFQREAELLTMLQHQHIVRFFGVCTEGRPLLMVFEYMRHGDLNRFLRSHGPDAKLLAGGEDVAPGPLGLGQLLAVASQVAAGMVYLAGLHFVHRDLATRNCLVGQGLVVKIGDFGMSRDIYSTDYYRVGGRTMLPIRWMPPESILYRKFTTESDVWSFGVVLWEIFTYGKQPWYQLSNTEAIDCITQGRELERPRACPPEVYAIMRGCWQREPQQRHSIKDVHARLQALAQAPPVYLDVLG
Chain of TIE2 (Q02763 23-1124, species assumed): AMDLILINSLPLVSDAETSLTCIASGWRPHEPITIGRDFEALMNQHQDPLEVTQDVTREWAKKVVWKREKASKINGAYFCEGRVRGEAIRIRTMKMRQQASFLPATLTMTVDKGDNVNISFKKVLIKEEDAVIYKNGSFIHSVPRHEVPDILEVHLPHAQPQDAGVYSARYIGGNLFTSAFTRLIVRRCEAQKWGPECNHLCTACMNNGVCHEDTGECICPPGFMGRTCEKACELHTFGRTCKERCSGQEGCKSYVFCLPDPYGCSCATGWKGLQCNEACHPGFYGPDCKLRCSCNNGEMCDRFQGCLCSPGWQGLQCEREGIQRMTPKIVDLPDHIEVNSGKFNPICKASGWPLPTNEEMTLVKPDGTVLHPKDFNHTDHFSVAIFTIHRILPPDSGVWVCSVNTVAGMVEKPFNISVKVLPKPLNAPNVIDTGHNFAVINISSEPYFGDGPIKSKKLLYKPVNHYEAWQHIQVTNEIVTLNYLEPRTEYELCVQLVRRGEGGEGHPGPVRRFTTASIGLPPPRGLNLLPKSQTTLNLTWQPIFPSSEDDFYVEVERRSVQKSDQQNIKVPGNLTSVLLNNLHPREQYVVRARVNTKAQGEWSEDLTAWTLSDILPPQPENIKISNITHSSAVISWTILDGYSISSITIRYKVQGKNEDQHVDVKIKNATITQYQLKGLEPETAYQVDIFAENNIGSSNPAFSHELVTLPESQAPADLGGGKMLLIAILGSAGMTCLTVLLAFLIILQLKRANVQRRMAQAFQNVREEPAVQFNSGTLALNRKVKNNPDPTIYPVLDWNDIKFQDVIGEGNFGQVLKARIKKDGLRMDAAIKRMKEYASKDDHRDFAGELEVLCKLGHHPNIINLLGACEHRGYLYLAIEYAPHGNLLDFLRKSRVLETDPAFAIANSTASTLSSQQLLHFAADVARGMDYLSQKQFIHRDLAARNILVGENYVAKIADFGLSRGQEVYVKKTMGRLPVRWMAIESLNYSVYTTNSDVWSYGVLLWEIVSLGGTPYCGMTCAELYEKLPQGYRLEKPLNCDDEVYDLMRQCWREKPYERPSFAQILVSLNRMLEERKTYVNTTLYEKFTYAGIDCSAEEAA

inhibition at 5 µM (EPH-A8) [%] | inhibition at 5 µM (TRKA) [%] | inhibition of kinase activity, EPH-A5 (EPH-A5) | inhibition at 5 µM (TIE2) [%] | inhibition at 5 µM (TYRO3) [%] | inhibition at 5 µM (SRC) [%] | inhibition at 5 µM (EPH-A4) [%] | Compound
< 50 | < 50 | E (category E is less than 50%) | < 50 | < 50 | < 50 | < 50 | CNC(=O)c1ccc(Oc2ccc(NC(=O)c3nc(Cl)oc3-c3ccc(F)cc3)c(F)c2)cn1 [Compound 36]
< 50 | < 50 | E (category E is less than 50%) | < 50 | < 50 | < 50 | < 50 | CSc1nc(C(=O)Nc2ccc(Oc3ccnc(C(=O)NC4COC4)c3)c(F)c2)c(-c2ccc(F)c(F)c2)o1 [Compound 37]
50 to 79 | 50 to 79 | E (category E is less than 50%) | 50 to 79 | 50 to 79 | 50 to 79 | < 50 | CNC(=O)c1cc(Oc2ccc(NC(=O)c3nc(OCC(F)(F)F)oc3-c3ccc(F)cc3)cc2F)ccn1 [Compound 38]
< 50 | < 50 | E (category E is less than 50%) | < 50 | 50 to 79 | < 50 | < 50 | COc1nc(C(=O)Nc2ccc(Oc3ccnc(C(=O)NC4COC4)c3)c(F)c2)c(-c2ccc(F)cc2)o1 [Compound 39]
< 50 | < 50 | E (category E is less than 50%) | < 50 | < 50 | < 50 | < 50 | CSc1nc(C(=O)Nc2ccc(Oc3ccnc(C(=O)NCC(F)(F)F)c3)c(F)c2)c(-c2ccc(F)cc2)o1 [Compound 40]
50 to 79 | < 50 | D (category D for 50-79) | < 50 | 50 to 79 | < 50 | 50 to 79 | CSc1nc(C(=O)Nc2ccc(Oc3ccnc(C(=O)NCCN(C)C)c3)c(F)c2)c(-c2ccc(F)cc2)o1 [Compound 41]
< 50 | < 50 | E (category E is less than 50%) | < 50 | < 50 | < 50 | < 50 | CSc1nc(C(=O)Nc2ccc(Oc3ccnc(C(=O)NC4CCN(C)CC4)c3)c(F)c2)c(-c2ccc(F)cc2)o1 [Compound 42]
< 50 | < 50 | E (category E is less than 50%) | < 50 | < 50 | < 50 | < 50 | COc1nc(C(=O)Nc2ccc(Oc3ccnc(C(=O)NCC(F)(F)F)c3)c(F)c2)c(-c2ccc(F)cc2)o1 [Compound 43]
